The record followed here is ChEMBL document CHEMBL1221167, “Small-molecule inhibition of siderophore biosynthesis in Mycobacterium tuberculosis and Yersinia pestis” (Nat Chem Biol, 2005).

Activity calls are given as the source filed them. The calls are words filed in the database; no cut-off is given here. A value given as a limit tells only on which side of the number the result lay.

Assay [1] relates to Yersinia pestis. The assay is described as follows: Antimicrobial activity against Yersinia pestis assessed as inhibition of bacterial growth in iron-supplemented medium after 22 hrs. Type of assay: functional, organism-based.
Assay [2] concerns Mycobacterium tuberculosis. The assay is described as follows: Inhibition of siderophore production in Mycobacterium tuberculosis H37Rv at 200 uM after 12 hrs by radiometric assay. It counts as functional, organism-based.
Assay [3] has as its system Mycobacterium tuberculosis. Description: Antimicrobial activity against Mycobacterium tuberculosis H37Rv assessed as inhibition of bacterial growth in iron-supplemented medium after 8 days. It counts as functional, organism-based. The following applies: 192 h.
Assay [4] concerns Mycobacterium tuberculosis. The assay is described as follows: Antimicrobial activity against Mycobacterium tuberculosis H37Rv assessed as inhibition of bacterial growth in iron-deficient medium after 8 days. Type of assay: functional, organism-based. The following applies: 192 h.
Assay [5] concerns Yersinia pestis. The assay is described as follows: Antimicrobial activity against Yersinia pestis assessed as inhibition of bacterial growth in iron-deficient medium after 22 hrs. It counts as functional, organism-based.
The next assay has as its target T1, Pyochelin synthase PchD (Pseudomonas aeruginosa, UniProt Q9HWG3).
T1 sequence (Q9HWG3 whole entry): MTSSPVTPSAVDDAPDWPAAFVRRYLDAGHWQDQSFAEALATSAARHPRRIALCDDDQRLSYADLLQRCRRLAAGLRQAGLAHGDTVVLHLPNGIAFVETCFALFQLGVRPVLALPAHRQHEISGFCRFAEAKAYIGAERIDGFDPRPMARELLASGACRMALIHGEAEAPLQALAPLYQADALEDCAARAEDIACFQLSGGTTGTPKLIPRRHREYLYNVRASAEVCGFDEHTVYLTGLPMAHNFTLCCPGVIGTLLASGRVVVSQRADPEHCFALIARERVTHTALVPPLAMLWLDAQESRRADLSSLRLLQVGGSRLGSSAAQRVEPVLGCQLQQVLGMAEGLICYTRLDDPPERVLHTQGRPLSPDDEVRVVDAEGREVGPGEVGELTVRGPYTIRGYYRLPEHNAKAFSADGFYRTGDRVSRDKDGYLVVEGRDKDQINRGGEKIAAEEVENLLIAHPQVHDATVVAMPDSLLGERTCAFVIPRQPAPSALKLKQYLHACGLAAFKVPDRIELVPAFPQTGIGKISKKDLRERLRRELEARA
Description: Inhibition of adenylation activity of Pseudomonas aeruginosa PchD after 15 mins by ATP-[32P]pyrophosphate exchange assay.

Assay [6] concerns the target T2, AMP-binding enzyme family protein (Yersinia pestis) (UniProt Q56950).
T2 sequence (whole entry): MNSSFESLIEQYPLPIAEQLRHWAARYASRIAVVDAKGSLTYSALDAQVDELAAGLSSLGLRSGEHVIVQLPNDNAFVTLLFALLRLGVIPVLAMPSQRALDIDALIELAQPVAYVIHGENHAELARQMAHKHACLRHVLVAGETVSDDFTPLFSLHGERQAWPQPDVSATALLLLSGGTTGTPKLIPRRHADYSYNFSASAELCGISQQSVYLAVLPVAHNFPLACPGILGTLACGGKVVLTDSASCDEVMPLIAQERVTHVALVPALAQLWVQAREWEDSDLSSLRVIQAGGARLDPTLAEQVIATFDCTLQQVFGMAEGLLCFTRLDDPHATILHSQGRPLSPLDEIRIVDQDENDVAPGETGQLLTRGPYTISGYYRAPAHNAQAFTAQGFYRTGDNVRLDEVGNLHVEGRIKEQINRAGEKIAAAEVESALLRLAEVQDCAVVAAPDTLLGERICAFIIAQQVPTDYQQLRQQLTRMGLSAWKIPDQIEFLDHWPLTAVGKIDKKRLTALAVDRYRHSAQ
The assay is described as follows: Inhibition of His6-tagged Yersinia pestis YbtE-mediated [3H]salicyl-ypArCP-H6 formation up to 400 uM after 1.5 hrs by microplate counting.

As usually defined, the IC50 is the concentration that inhibits the measured activity by half. Regarding `Nc1ncnc2c1ncn2[C@@H]1O[C@H](COS(=O)(=O)NC(=O)c2ccccc2O)[C@@H](O)[C@H]1O`, the concentration for half-maximal inhibition (IC50) is greater than 400 µM in the assay on Yersinia pestis [1]; 39.9 µM in assay [3]; 2.2 µM in assay [4]; 51.2 µM in the assay on Yersinia pestis [5]; 0.0125 µM against Pyochelin synthase PchD. Moreover, the inhibition entry in assay [2] is “Active”.
Take `Nc1ncnc2c1ncn2[C@@H]1O[C@H](COS(N)(=O)=O)[C@@H](O)[C@H]1O`: in assay [6], the inhibition entry is “inactive”.
